Reference: PubChem BioAssay (NCI)
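Protocol summary: plate cells (96-well), add compound at 5 concentrations, incubate 48 h, interpolate endpoints linearly. GI50 is the concentration that inhibits growth by half. At the TGI there is no net growth.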

Legend:
Assay in all cases: DTP human tumour cell line panel, 48 h
786-0 renal = tested on: 786-0 renal
A498 renal = tested on: A498 renal
A549 NSCLC = tested on: A549 NSCLC
ACHN renal = tested on: ACHN renal
BT-549 breast = tested on: BT-549 breast
CAKI-1 renal = tested on: CAKI-1 renal
CCRF-CEM leukemia = tested on: CCRF-CEM leukemia
COLO 205 colon = tested on: COLO 205 colon
EKVX NSCLC = tested on: EKVX NSCLC
HCC-2998 colon = tested on: HCC-2998 colon
HCT-116 colon = tested on: HCT-116 colon
HCT-15 colon = tested on: HCT-15 colon
HL-60(TB) leukemia = tested on: HL-60(TB) leukemia
HOP-62 NSCLC = tested on: HOP-62 NSCLC
HOP-92 NSCLC = tested on: HOP-92 NSCLC
HS 578T breast = tested on: HS 578T breast
HT29 colon = tested on: HT29 colon
IGROV1 ovarian = tested on: IGROV1 ovarian
K-562 leukemia = tested on: K-562 leukemia
KM12 colon = tested on: KM12 colon
LOX IMVI melanoma = tested on: LOX IMVI melanoma
M14 melanoma = tested on: M14 melanoma
MALME-3M melanoma = tested on: MALME-3M melanoma
MCF7 breast = tested on: MCF7 breast
MDA-MB-231 breast = tested on: MDA-MB-231 breast
MDA-MB-435 = tested on: MDA-MB-435
MOLT-4 leukemia = tested on: MOLT-4 leukemia
NCI-H226 lung = tested on: NCI-H226 lung
NCI-H23 lung = tested on: NCI-H23 lung
NCI-H460 lung = tested on: NCI-H460 lung
NCI-H522 lung = tested on: NCI-H522 lung
NCI/ADR-RES ovarian = tested on: NCI/ADR-RES ovarian
OVCAR-3 ovarian = tested on: OVCAR-3 ovarian
OVCAR-4 ovarian = tested on: OVCAR-4 ovarian
OVCAR-5 ovarian = tested on: OVCAR-5 ovarian
OVCAR-8 ovarian = tested on: OVCAR-8 ovarian
PC-3 prostate = tested on: PC-3 prostate
RPMI-8226 leukemia = tested on: RPMI-8226 leukemia
RXF 393 renal = tested on: RXF 393 renal
SF-268 CNS = tested on: SF-268 CNS
SF-295 CNS = tested on: SF-295 CNS
SF-539 CNS = tested on: SF-539 CNS
SK-MEL-2 melanoma = tested on: SK-MEL-2 melanoma
SK-MEL-28 melanoma = tested on: SK-MEL-28 melanoma
SK-MEL-5 melanoma = tested on: SK-MEL-5 melanoma
SK-OV-3 ovarian = tested on: SK-OV-3 ovarian
SN12C renal = tested on: SN12C renal
SNB-19 CNS = tested on: SNB-19 CNS
SNB-75 CNS = tested on: SNB-75 CNS
SR leukemia = tested on: SR leukemia
SW-620 colon = tested on: SW-620 colon
TK-10 renal = tested on: TK-10 renal
U251 CNS = tested on: U251 CNS
UACC-257 melanoma = tested on: UACC-257 melanoma
UACC-62 melanoma = tested on: UACC-62 melanoma
UO-31 renal = tested on: UO-31 renal

Which GI50 (786-0 renal) does the source give for `C=C1C(=O)O[C@H]2[C@H]1CC/C(COC(=O)c1cc3cc(Cl)ccc3[nH]1)=C\CC[C@@]1(C)O[C@@H]21` here?
The GI50 was 1.51 µM.

What about the TGI (786-0 renal) of the same molecule?
Its TGI is 2.91 µM.

And the GI50 (A498 renal)?
The GI50 was 2.65 µM.

And the TGI (A498 renal)?
The TGI was 9.17 µM.

And the GI50 (A549 NSCLC)?
Its GI50 is 1.69 µM.

And the TGI (A549 NSCLC)?
The TGI was 3.31 µM.

And the GI50 (ACHN renal)?
The GI50 was 1.35 µM.

And the TGI (ACHN renal)?
Its TGI is 2.75 µM.

What about the GI50 (BT-549 breast) of the same molecule?
Its GI50 is 1.31 µM.

What about the TGI (BT-549 breast) of the same molecule?
Its TGI is 3.2 µM.

What about the GI50 (CAKI-1 renal) of the same molecule?
Its GI50 is 1.19 µM.

And the TGI (CAKI-1 renal)?
Its TGI is 2.42 µM.

What about the GI50 (CCRF-CEM leukemia) of the same molecule?
Its GI50 is 0.394 µM.

And the TGI (CCRF-CEM leukemia)?
Its TGI is 1.61 µM.

What about the GI50 (COLO 205 colon) of the same molecule?
The GI50 was 1.72 µM.

And the TGI (COLO 205 colon)?
Its TGI is 3.7 µM.

And the GI50 (EKVX NSCLC)?
Its GI50 is 1.4 µM.

What about the TGI (EKVX NSCLC) of the same molecule?
The TGI was 2.91 µM.

What about the GI50 (HCC-2998 colon) of the same molecule?
Its GI50 is 1.4 µM.

And the TGI (HCC-2998 colon)?
The TGI was 2.85 µM.

And the GI50 (HCT-116 colon)?
Its GI50 is 0.707 µM.

What about the TGI (HCT-116 colon) of the same molecule?
The TGI was 2.06 µM.

And the GI50 (HCT-15 colon)?
Its GI50 is 1 µM.

What about the TGI (HCT-15 colon) of the same molecule?
The TGI was 2.43 µM.

What about the GI50 (HL-60(TB) leukemia) of the same molecule?
Its GI50 is 0.44 µM.

And the TGI (HL-60(TB) leukemia)?
Its TGI is 2.3 µM.

What about the GI50 (HOP-62 NSCLC) of the same molecule?
The GI50 was 2.22 µM.

What about the TGI (HOP-62 NSCLC) of the same molecule?
The TGI was 5.88 µM.

And the GI50 (HOP-92 NSCLC)?
Its GI50 is 1.25 µM.

What about the TGI (HOP-92 NSCLC) of the same molecule?
Its TGI is 2.76 µM.

What about the GI50 (HS 578T breast) of the same molecule?
The GI50 was 2.25 µM.

What about the TGI (HS 578T breast) of the same molecule?
The TGI was 6.48 µM.

And the GI50 (HT29 colon)?
The GI50 was 1.33 µM.

And the TGI (HT29 colon)?
Its TGI is 3.12 µM.

What about the GI50 (IGROV1 ovarian) of the same molecule?
Its GI50 is 1.38 µM.

What about the TGI (IGROV1 ovarian) of the same molecule?
Its TGI is 2.91 µM.

What about the GI50 (K-562 leukemia) of the same molecule?
The GI50 was 1.14 µM.

And the TGI (K-562 leukemia)?
Its TGI is 4.14 µM.

What about the GI50 (KM12 colon) of the same molecule?
Its GI50 is 2.15 µM.

And the TGI (KM12 colon)?
The TGI was 6.92 µM.

And the GI50 (LOX IMVI melanoma)?
Its GI50 is 0.813 µM.

What about the TGI (LOX IMVI melanoma) of the same molecule?
The TGI was 2.08 µM.

And the GI50 (M14 melanoma)?
The GI50 was 1.47 µM.

And the TGI (M14 melanoma)?
Its TGI is 3.4 µM.

And the GI50 (MALME-3M melanoma)?
Its GI50 is 1.63 µM.

And the TGI (MALME-3M melanoma)?
Its TGI is 3.33 µM.

And the GI50 (MCF7 breast)?
Its GI50 is 0.86 µM.

And the TGI (MCF7 breast)?
Its TGI is 2.32 µM.

What about the GI50 (MDA-MB-231 breast) of the same molecule?
Its GI50 is 1.32 µM.

What about the TGI (MDA-MB-231 breast) of the same molecule?
Its TGI is 2.85 µM.

And the GI50 (MDA-MB-435)?
Its GI50 is 1.24 µM.

And the TGI (MDA-MB-435)?
Its TGI is 2.51 µM.

What about the GI50 (MOLT-4 leukemia) of the same molecule?
The GI50 was 0.557 µM.

And the TGI (MOLT-4 leukemia)?
The TGI was 3.37 µM.

What about the GI50 (NCI-H226 lung) of the same molecule?
Its GI50 is 1.8 µM.

What about the TGI (NCI-H226 lung) of the same molecule?
Its TGI is 3.72 µM.

And the GI50 (NCI-H23 lung)?
Its GI50 is 1.63 µM.

What about the TGI (NCI-H23 lung) of the same molecule?
Its TGI is 3.68 µM.

And the GI50 (NCI-H460 lung)?
The GI50 was 1.72 µM.

What about the TGI (NCI-H460 lung) of the same molecule?
Its TGI is 3.53 µM.

What about the GI50 (NCI-H522 lung) of the same molecule?
The GI50 was 1.59 µM.

What about the TGI (NCI-H522 lung) of the same molecule?
The TGI was 3.92 µM.

And the GI50 (NCI/ADR-RES ovarian)?
Its GI50 is 1.45 µM.

And the TGI (NCI/ADR-RES ovarian)?
Its TGI is 3.78 µM.

What about the GI50 (OVCAR-3 ovarian) of the same molecule?
Its GI50 is 1.25 µM.

What about the TGI (OVCAR-3 ovarian) of the same molecule?
Its TGI is 2.7 µM.

What about the GI50 (OVCAR-4 ovarian) of the same molecule?
Its GI50 is 1.33 µM.

What about the TGI (OVCAR-4 ovarian) of the same molecule?
The TGI was 2.72 µM.

And the GI50 (OVCAR-5 ovarian)?
The GI50 was 1.53 µM.

What about the TGI (OVCAR-5 ovarian) of the same molecule?
Its TGI is 3.28 µM.

What about the GI50 (OVCAR-8 ovarian) of the same molecule?
Its GI50 is 1.34 µM.

And the TGI (OVCAR-8 ovarian)?
Its TGI is 3.32 µM.

And the GI50 (PC-3 prostate)?
Its GI50 is 2.42 µM.

What about the TGI (PC-3 prostate) of the same molecule?
The TGI was 6.58 µM.

And the GI50 (RPMI-8226 leukemia)?
The GI50 was 0.81 µM.

And the TGI (RPMI-8226 leukemia)?
The TGI was 3.28 µM.

And the GI50 (RXF 393 renal)?
Its GI50 is 1.38 µM.

What about the TGI (RXF 393 renal) of the same molecule?
The TGI was 2.72 µM.

What about the GI50 (SF-268 CNS) of the same molecule?
Its GI50 is 1.44 µM.

What about the TGI (SF-268 CNS) of the same molecule?
Its TGI is 2.86 µM.

And the GI50 (SF-295 CNS)?
The GI50 was 3.18 µM.

What about the TGI (SF-295 CNS) of the same molecule?
Its TGI is 16.5 µM.

And the GI50 (SF-539 CNS)?
The GI50 was 1.44 µM.

And the TGI (SF-539 CNS)?
Its TGI is 2.92 µM.

What about the GI50 (SK-MEL-2 melanoma) of the same molecule?
Its GI50 is 1.73 µM.

What about the TGI (SK-MEL-2 melanoma) of the same molecule?
Its TGI is 3.59 µM.

And the GI50 (SK-MEL-28 melanoma)?
Its GI50 is 1.58 µM.

And the TGI (SK-MEL-28 melanoma)?
The TGI was 3.1 µM.

And the GI50 (SK-MEL-5 melanoma)?
The GI50 was 1.91 µM.

What about the TGI (SK-MEL-5 melanoma) of the same molecule?
The TGI was 3.54 µM.

What about the GI50 (SK-OV-3 ovarian) of the same molecule?
Its GI50 is 10.2 µM.

What about the TGI (SK-OV-3 ovarian) of the same molecule?
The TGI was 21.8 µM.

And the GI50 (SN12C renal)?
The GI50 was 1.7 µM.

And the TGI (SN12C renal)?
Its TGI is 3.57 µM.

And the GI50 (SNB-19 CNS)?
Its GI50 is 2.91 µM.

What about the TGI (SNB-19 CNS) of the same molecule?
Its TGI is 10.1 µM.

And the GI50 (SNB-75 CNS)?
The GI50 was 0.576 µM.

And the TGI (SNB-75 CNS)?
Its TGI is 2.07 µM.

And the GI50 (SR leukemia)?
The GI50 was 0.776 µM.

And the TGI (SR leukemia)?
The TGI was 3.61 µM.

What about the GI50 (SW-620 colon) of the same molecule?
Its GI50 is 1.4 µM.

What about the TGI (SW-620 colon) of the same molecule?
The TGI was 3.37 µM.

What about the GI50 (TK-10 renal) of the same molecule?
Its GI50 is 1.75 µM.

What about the TGI (TK-10 renal) of the same molecule?
Its TGI is 3.12 µM.

What about the GI50 (U251 CNS) of the same molecule?
Its GI50 is 1.75 µM.

What about the TGI (U251 CNS) of the same molecule?
Its TGI is 3.32 µM.

What about the GI50 (UACC-257 melanoma) of the same molecule?
Its GI50 is 1.7 µM.

And the TGI (UACC-257 melanoma)?
The TGI was 3.2 µM.

And the GI50 (UACC-62 melanoma)?
Its GI50 is 1.67 µM.

And the TGI (UACC-62 melanoma)?
The TGI was 3.27 µM.

What about the GI50 (UO-31 renal) of the same molecule?
Its GI50 is 1.21 µM.

And the TGI (UO-31 renal)?
The TGI was 2.56 µM.
